Results taken from patent publication US11426473B2, “Nitrogen-containing compound or salt thereof, or metal complex thereof” (FUJIFILM Corporation, priority 2013, dated 2022).

Tests used:
[1] = Absorbed doses in each organ in humans calculated with OLINDA/EXM 1.0 from monkey organ distribution; format: in vivo; details: calculated with OLINDA/EXM 1.0 from monkey imaging with [111In]-(P2)
Procedure: Blood kinetic parameters were calculated with OLINDA/EXM 1.0 from the blood concentration of radioactivity by blood collection over time from a cynomolgus monkey using [^111In]-(P2). Also, absorbed doses in each organ in the case of administration to humans were calculated with OLINDA/EXM 1.0 from organ distribution by imaging using [^111In]-(P2). The radiolabeled compound [^111In]-(P2) (98 MBq/[…]) was administered to a cynomolgus monkey (Hamri Co., Ltd., male, 3 years old, 3.4 kg) under anesthesia. After the administration, blood collection and imaging with a gamma camera were performed over time. The blood collection was carried out 10 minutes, 30 minutes, 60 minutes, 2 hours, 4 hours, 5 hours, 6 hours, 24 hours, 48 hours, 72 hours, and 144 hours after administration. The imaging was carried out 1, 2, 4, 6, 24, 48, 72, and 144 hours after administration with a gamma camera (Symbia, Siemens AG) to take planar images. The anesthesia was carried out using 20 mg/kg ketamine before administration of [^111In]-(P2) and maintained by inhalation anesthesia (2 to 3% isoflurane, 5 to 8 L/min) until the completion of the imaging at 6 hours after administration. At or after 24 hours after administration, blood collection and imaging were performed by the introduction of 20 mg/kg ketamine and 2 mg/kg xylazine. […] The blood kinetic parameters are shown below.

[2] = tested on: U87MG cells subcutaneous tumor; assay: Concentration of radioactivity in tumor of labeled compounds (Test Example 4); format: in vivo, mouse; details: tail vein, 111In 740 kBq, 64Cu and 90Y 500 kBq
Procedure: U87MG cells were subcutaneously transplanted at 1×10^7 cells/mouse to the right flank of Balb/cAJcl-nu/nu (CLEA Japan, Inc. or Japan SLC, Inc., 6 to 9 weeks old). After 2 to 3 weeks, the mice were divided into groups each involving 3 individuals per point in time when their tumors became 200 to 500 mm^3. The ^111In-labeled compound (740 kBq) was administered to the tail veins of the mice.
After a given time, the animals were sacrificed to extract their tumors. The weights of the tumors were measured, and the radioactivity was measured using a gamma counter to calculate the concentration of radioactivity in the tumors (% ID/g). In the same way as above, the concentration of radioactivity in the tumors (% ID/g) was calculated for the ^64Cu-labeled compound (500 kBq) and the ^90Y-labeled compound (500 kBq).

[3] = Radiochemical purity after standing at room temperature; format: physicochemical; details: immediately after preparation and after standing at room temperature for 24 hours
Procedure: To a mixed solution of compound (P2) (8.5 μg) and a 0.2 mol/L sodium acetate buffer solution (pH 4.0) (1.5 mL), a [^111In] indium chloride solution (80 MBq, 100 μL) was added. The mixture was heated at 100° C. for 15 minutes and then left at room temperature for 5 minutes to obtain radiolabeled compound [^111In]-(P2). […] Its radiochemical purity was 95% or more both immediately after preparation and after standing at room temperature for 24 hours.
To a mixed solution of compound (P2) (79 μg), gentisic acid (1.8 mg), a 0.6 mol/L sodium acetate buffer solution (pH 4.0, 120 μL), and a 0.4 mol/L aqueous sodium hydroxide solution (24 μL), a [^90Y] yttrium chloride solution (700 MBq, 240 μL) was added. The mixture was heated at 100° C. for 20 minutes and then left at room temperature for 5 minutes to obtain radiolabeled compound [^90Y]-(P2). […] Its radiochemical purity was 95% or more both immediately after preparation and after standing at room temperature for 24 hours.
To a mixed solution of compound (P2) ([…]) and a 0.2 mol/L sodium acetate buffer solution (pH 4.0, 219 μL), a [^64Cu] copper chloride solution (pH 5, 35 MBq, 55 μL) was added. The mixture was heated at 100° C. for 15 minutes and then left at room temperature for 5 minutes to obtain radiolabeled compound [^64Cu]-(P2). […] Its radiochemical purity was 90% or more both immediately after preparation and after standing at room temperature for 22 hours.
To a mixed solution of compound (Aa7) (4.2 μg), gentisic acid (1 mg), and a 0.2 mol/L sodium acetate buffer solution (pH 4.0) (5.0 μL), [^64Cu] copper chloride in a 0.2 mol/L sodium acetate buffer solution (pH 4.0) (40 MBq, 155 μL) was added. The mixture was heated at 100° C. for 15 minutes and then left at room temperature for 5 minutes to obtain radiolabeled compound [^64Cu]-(Aa7). […] Its radiochemical purity was 90% or more both immediately after preparation and after standing at room temperature for 24 hours.

[4] = tested on: T98G cell (human glioblastoma) subcutaneous tumor; assay: Treatment experiment of subcutaneously T98G-transplanted model using [90Y]-(P2); format: in vivo, mouse; details: 1 dose; for Rate of inhibition: 13 days after administration, above 100% indicated as 100%; for Tumor volume 13 days after administration / Tumor volume At start of administration: n 6, Mean ± SD; for Tumor volume At start of administration: baseline; for The number of individuals having tumor regression: of n 6
Procedure: (§1) U87MG cells were subcutaneously transplanted at 1×10^7 cells/mouse to the right flank of Balb/c Slc-nu/nu (SLC Japan, Inc., male, 6 weeks old). After 2 weeks, mice whose tumors became 100 to 500 mm^3 were grouped. Phosphate-buffered saline (PBS) or the radiolabeled compound [90Y]-(P2) was administered to the tail veins of the mice, and their tumor volumes were measured. When the tumor volumes of the mice in the PBS group exceeded 2,000 mm^3, which is a humanistic endpoint, the antitumor effect was evaluated. The evaluation values were the rate of inhibition of tumor growth ((1−(Average tumor volume of the compound administration group−Average tumor volume of the compound administration group before administration)/(Average tumor volume of the PBS group−Average tumor volume of the PBS group before administration))×100 (provided that the rate of inhibition exceeding 100% was indicated as 100%)) and the number of individuals having a tumor volume equal to or smaller than that at the start of the experiment (the number of individuals having tumor regression).
A mixture of a T98G cell suspension (human glioblastoma, 1×10^7 cells) and Matrigel (Becton, Dickinson and Company) in equal amounts was subcutaneously transplanted to the right flank of Balb/c Slc-nu/nu (SLC Japan, Inc., male, 6 weeks old). After 77 days, the mice were grouped when their tumors became 300 to 1,200 mm^3. Phosphate-buffered saline (PBS) or the radiolabeled compound [^90Y]-(P2) was administered to the tail veins of the mice, and their tumor volumes were measured. The evaluation values were calculated in the same way as in Test Example 8 to evaluate the antitumor effect.

[5] = tested on: U87MG cells subcutaneous tumor; assay: Treatment experiment of subcutaneously U87MG-transplanted model using [90Y]-(P2); format: in vivo, mouse; details: 1 dose; for Rate of inhibition: 16 days after administration, above 100% indicated as 100%; for Tumor volume 16 days after administration / Tumor volume At start of administration: n 8, Mean ± SD; for Tumor volume At start of administration: baseline; for The number of individuals having tumor regression: of n 8
Procedure: as §1

[6] = tested on: A375 (human melanoma) subcutaneous tumor; assay: Tumor accumulation of [111In]-(A8), tissue extraction and radioactivity measurement, A375; format: in vivo, mouse; details: 740 kBq tail vein
Procedure: (§2) SK-MEL-28 (human melanoma), A375 (human melanoma), A498 (human renal cell cancer), Caki-2 (human renal cell cancer), HCT116, U87MG, and T98G cells were studied as follows: the cells of each line were cultured and subcutaneously transplanted at 1×10^7 cells/mouse to the right flank of Balb/cAJcl-nu/nu (CLEA Japan, Inc., male, 6 to 8 weeks old). The mice were raised until their tumor volumes reached 85 to 1,075 mm^3. Then, the mice were allocated at the time of anatomy to groups each involving 3 individuals so as to prevent the tumor volumes from disproportioning among the groups. Then, the radiolabeled compound [^111In]-(A8) (740 kBq) was administered to the tail veins of the mice. The animals were sacrificed at the time of anatomy to extract their tumors. The weights of the tumors were measured, and then, the radioactivity was measured using a gamma counter to calculate the concentration of radioactivity in the tumors (% ID/g: % injected dose/g).

[7] = tested on: A498 (human renal cell cancer) subcutaneous tumor; assay: Tumor accumulation of [111In]-(A8), tissue extraction and radioactivity measurement, A498; format: in vivo, mouse; details: 740 kBq tail vein
Procedure: as §2

[8] = tested on: Caki-2 (human renal cell cancer) subcutaneous tumor; assay: Tumor accumulation of [111In]-(A8), tissue extraction and radioactivity measurement, Caki-2; format: in vivo, mouse; details: 740 kBq tail vein
Procedure: as §2

[9] = tested on: SK-MEL-28 (human melanoma) subcutaneous tumor; assay: Tumor accumulation of [111In]-(A8), tissue extraction and radioactivity measurement, SK-MEL-28; format: in vivo, mouse; details: 740 kBq tail vein
Procedure: as §2

[10] = tested on: U87MG (human glioblastoma) subcutaneous tumor; assay: Tumor accumulation of [111In]-(A8), tissue extraction and radioactivity measurement, U87MG; format: in vivo, mouse; details: 740 kBq tail vein
Procedure: as §2

[11] = tested on: T98G (human glioblastoma) subcutaneous tumor; assay: Tumor accumulation of [111In]-(A8), tissue extraction and radioactivity measurement, T98G; format: in vivo, mouse; details: 740 kBq tail vein
Procedure: as §2

[12] = tested on: HCT116 (human colorectal cancer) subcutaneous tumor; assay: Tumor accumulation of [111In]-(A8), tissue extraction and radioactivity measurement, HCT116; format: in vivo, mouse; details: 740 kBq tail vein
Procedure: as §2

## Cc1cc(OCCCC(=O)NCCNC(=O)[C@H](CS(=O)(=O)O)NC(=O)CN2CCN(CC(=O)[O-])CCN(CC(=O)[O-])CCN(CC(=O)[O-])CC2)cc(C)c1S(=O)(=O)N[C@@H](CNC(=O)CCCCc1ccc2c(n1)NCCC2)C(=O)O.[90Y+3] [[^90Y]-(P2)]
[1]
  Absorbed dose, Brain: 1.96 mGy/MBq
  Absorbed dose, Kidney: 14.70 mGy/MBq
  Absorbed dose, Liver: 1.12 mGy/MBq
  Absorbed dose, Lung: 1.35 mGy/MBq
  Absorbed dose, Red bone marrow: 0.06 mGy/MBq
  Absorbed dose, Small intestine: 0.87 mGy/MBq
  Absorbed dose, Whole body: 0.27 mGy/MBq
[2]; 4 hours later
  Concentration of radioactivity in tumor: 12.52 % ID/g
[2]; 24 hours later
  Concentration of radioactivity in tumor: 15.29 % ID/g
[3]
  radiochemical purity after standing: ≥ 95%
[4]; Dose 22.2 MBa
  Rate of inhibition: 82%
  Tumor volume 13 days after administration: 882 ± 399 mm^3
  Tumor volume At start of administration: 755 ± 293 mm^3
  The number of individuals having tumor regression: 1
[4]; Dose 29.6 MBa
  Rate of inhibition: 97%
  Tumor volume 13 days after administration: 755 ± 313 mm^3
  Tumor volume At start of administration: 736 ± 264 mm^3
  The number of individuals having tumor regression: 3
[5]; Dose 14.8 MBa
  Rate of inhibition: 95%
  Tumor volume 16 days after administration: 429 ± 188 mm^3
  Tumor volume At start of administration: 351 ± 72 mm^3
  The number of individuals having tumor regression: 2
[5]; Dose 22.2 MBa
  Rate of inhibition: 97%
  Tumor volume 16 days after administration: 386 ± 142 mm^3
  Tumor volume At start of administration: 343 ± 88 mm^3
  The number of individuals having tumor regression: 2

## Cc1cc(OCCCC(=O)NCCNC(=O)C(CS(=O)(=O)O)NC(=O)C(CS(=O)(=O)O)NC(=O)CN2CCN(CC(=O)[O-])CCN(CC(=O)[O-])CCN(CC(=O)[O-])CC2)cc(C)c1S(=O)(=O)NC(CNC(=O)c1ccc(CCc2ccc3c(n2)NCCC3)cc1)C(=O)O.[111In+3] (stereo not drawn) [[^111In]-(A8)]
[6]; A375, 4 hours later
  Concentration of radioactivity in tumor: 3.7 % ID/g
[6]; A375, 24 hours later
  Concentration of radioactivity in tumor: 3.8 % ID/g
[7]; A498, 4 hours later
  Concentration of radioactivity in tumor: 13.1 % ID/g
[7]; A498, 24 hours later
  Concentration of radioactivity in tumor: 7.9 % ID/g
[8]; caki-2, 4 hours later
  Concentration of radioactivity in tumor: 6.4 % ID/g
[8]; caki-2, 24 hours later
  Concentration of radioactivity in tumor: 8.5 % ID/g
[2]; 4 hours later
  Concentration of radioactivity in tumor: 9.48 % ID/g
[2]; 24 hours later
  Concentration of radioactivity in tumor: 12.90 % ID/g
[9]; sk-mel-28, 4 hours later
  Concentration of radioactivity in tumor: 2.9 % ID/g
[9]; sk-mel-28, 24 hours later
  Concentration of radioactivity in tumor: 4.9 % ID/g
[10]; 4 hours later
  Concentration of radioactivity in tumor: 12.0 % ID/g
[10]; 24 hours later
  Concentration of radioactivity in tumor: 9.3 % ID/g
[11]; 4 hours later
  Concentration of radioactivity in tumor: 6.5 % ID/g
[11]; 24 hours later
  Concentration of radioactivity in tumor: 6.7 % ID/g
[12]; HCT116, 4 hours later
  Concentration of radioactivity in tumor: 3.1 % ID/g
[12]; HCT116, 24 hours later
  Concentration of radioactivity in tumor: 2.9 % ID/g
